Experimental data reported in patent US10829473B2, “Modulators of the cystic fibrosis transmembrane conductance regulator protein and methods of use” (AbbVie Overseas S.Á.R.L., priority 2017, dated 2020).
Like-named read-outs stand apart in the source and are kept apart here.

Molecular target: T1, F508delCFTR (Homo sapiens, UniProt P13569, DEL508-508)
T1 construct: expressed in transfected cells; host or cells: CFBE41o- human lung derived epithelial cells (CFBE41o-F508delCFTR-HRP), doxycycline-inducible
T1 sequence (P13569 with tags, fused parts or gaps DEL508-508): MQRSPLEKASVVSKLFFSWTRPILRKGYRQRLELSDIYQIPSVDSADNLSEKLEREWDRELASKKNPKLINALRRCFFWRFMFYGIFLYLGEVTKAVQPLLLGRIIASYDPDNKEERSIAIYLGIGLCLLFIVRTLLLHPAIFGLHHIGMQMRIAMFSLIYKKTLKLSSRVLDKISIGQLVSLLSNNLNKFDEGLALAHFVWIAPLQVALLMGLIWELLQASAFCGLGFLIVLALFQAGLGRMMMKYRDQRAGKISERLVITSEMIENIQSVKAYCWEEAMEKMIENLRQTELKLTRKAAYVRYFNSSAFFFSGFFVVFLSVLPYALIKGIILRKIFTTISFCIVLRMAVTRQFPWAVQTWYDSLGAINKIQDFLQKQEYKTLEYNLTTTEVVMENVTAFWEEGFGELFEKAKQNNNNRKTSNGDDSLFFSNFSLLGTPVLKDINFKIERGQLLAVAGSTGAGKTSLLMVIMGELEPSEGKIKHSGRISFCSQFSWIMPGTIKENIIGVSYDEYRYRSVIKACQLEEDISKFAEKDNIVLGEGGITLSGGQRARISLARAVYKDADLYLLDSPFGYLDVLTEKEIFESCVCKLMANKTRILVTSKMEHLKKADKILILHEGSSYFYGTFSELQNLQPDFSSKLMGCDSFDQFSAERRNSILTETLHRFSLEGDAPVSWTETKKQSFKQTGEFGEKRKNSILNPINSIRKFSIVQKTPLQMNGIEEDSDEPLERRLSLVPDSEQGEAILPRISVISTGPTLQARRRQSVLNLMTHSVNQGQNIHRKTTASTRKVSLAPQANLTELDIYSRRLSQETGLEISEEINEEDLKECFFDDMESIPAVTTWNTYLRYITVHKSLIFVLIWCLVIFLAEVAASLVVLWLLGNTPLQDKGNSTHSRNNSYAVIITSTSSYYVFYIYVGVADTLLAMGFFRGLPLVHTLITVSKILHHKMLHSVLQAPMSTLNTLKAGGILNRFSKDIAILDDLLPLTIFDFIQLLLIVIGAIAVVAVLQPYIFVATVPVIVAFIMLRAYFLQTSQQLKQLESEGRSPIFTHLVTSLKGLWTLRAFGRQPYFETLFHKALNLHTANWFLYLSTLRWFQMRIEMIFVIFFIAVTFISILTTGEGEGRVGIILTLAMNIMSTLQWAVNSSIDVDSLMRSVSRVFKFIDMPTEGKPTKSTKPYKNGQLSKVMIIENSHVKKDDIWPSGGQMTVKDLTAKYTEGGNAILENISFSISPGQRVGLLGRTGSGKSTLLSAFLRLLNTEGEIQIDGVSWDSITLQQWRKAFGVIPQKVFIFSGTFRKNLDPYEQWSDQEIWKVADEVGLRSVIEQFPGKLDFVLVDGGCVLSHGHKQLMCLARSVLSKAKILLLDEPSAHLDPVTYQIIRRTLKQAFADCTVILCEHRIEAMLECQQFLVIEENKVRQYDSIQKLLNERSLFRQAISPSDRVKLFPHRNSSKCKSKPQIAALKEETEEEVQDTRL
Test: Cell Surface Expression-Horse Radish Peroxidase (CSE-HRP) Assay
Assay type: cell-based
Conditions: for Maximum % activity (with co-corrector) / Emax: maximum at any tested concentration; for Emax: read-out: Maximum % activity (without co-corrector)
Protocol: A cellular assay for measuring the F508delCFTR cell surface expression after correction with test compounds either without or with a co-corrector (2 μM of 3-[(2R,4R)-4-({[1-(2,2-difluoro-1,3-benzodioxol-5-yl)cyclopropyl]carbonyl}amino)-7-methoxy-3,4-dihydro-2H-chromen-2-yl]benzoic acid), was developed in human lung derived epithelial cell line (CFBE4lo−) (Veit G et al, (2012) Mol Biol Cell. 23(21): 4188-4202). The development was achieved by expressing the F508delCFTR mutation along with a horseradish peroxidase (HRP) in the fourth exofacial loop, and then measuring the HRP activity using luminescence readout from these cells, CFBE410-F508delCFTR-HRP, that were incubated overnight with the test corrector compounds, either without or with the co-corrector. For this primary assay, the CFBE410-F508delCFTR-HRP cells were plated in 384-well plates (Greiner Bio-one; Cat 781080) at 4,000 cells/well along with 0.5 μg/mL doxycycline to induce the F508delCFTR-HRP expression and further incubated at 37° C., 5% CO2 for 68-72 hours. The test compounds were then added either without or with a co-corrector at the required concentrations and further incubated for 18-24 hours at 33° C. The highest concentration tested was 20 μM or 30 μM (GI-1 to GIII-36) with an 8-point concentration response curve using a 3-fold dilution in both the test compound without or with the co-corrector. Three replicate plates were run to determine one EC50. All plates contained negative controls (dimethyl sulfoxide, DMSO) and positive control (2 μM or 3 μM (GI-1 to GIII-36) of 3-[(2R,4R)-4-({[1-(2,2-difluoro-1,3-benzodioxol-5-yl)cyclopropyl]carbonyl}amino)-7-methoxy-3,4-dihydro-2H-chromen-2-yl]benzoic acid) as well as on-plate concentration response of the positive control. Post incubation, the plates were washed 5× times with Dulbecco's phosphate buffered saline (DPBS), followed by the addition of the HRP substrate, luminol (50 4), and measuring the HRP activity using luminescence readout on EnVision® Multilabel Plate Reader (Perkin Elmer; product number 2104-0010). The raw counts from the experiment were analyzed using Accelrys® Assay Explorer v3.3.
Z′ greater than 0.5 was used as passing quality control criteria for the plates.
The Z′ is defined as: 1−[3*SDPositve Control+3*SDNegative Control/Absolute(MeanPositive Control−MeanNegative Control)] wherein “SD” is standard deviation.
The % activity measured at each of the 8 test concentrations of the test compound added either without or with a co-corrector (2 μM or 3 μM (GI-1 to GIII-36) of 3-[(2R,4R)-4-({[1-(2,2-difluoro-1,3-benzodioxol-5-yl)cyclopropyl]carbonyl}amino)-7-methoxy-3,4-dihydro-2H-chromen-2-yl]benzoic acid) was normalized to the on-plate positive control using the following formulae: % activity (Test compound without co-corrector)=[(test compound without co-corrector response DMSO response)/(positive control response DMSO response)]*100 % activity (Test compound with co-corrector)=[(test compound with co-corrector response DMSO response)/(positive control response DMSO response)]*100
The maximum % activity achieved for the test compound either without or with a co-corrector at any tested concentration is presented in Table 6 along with the respective EC50's calculated using the following general sigmoidal curve with variable Hill slope equation (described as Model 42 in the Accelrys® Assay Explorer v3.3 software): y=(a−d)/(1+(x/c)b)+d
General sigmoidal curve with concentration, response, top, bottom, EC50 and Hill slope. This model describes a sigmoidal curve with an adjustable baseline, a. The equation can be used to fit curves where response is either increasing or decreasing with respect to the independent variable, “x”.
“x” is a concentration of drug under test.
“a” is the maximum response, and “d” is the minimum response
“c” is the inflection point (EGO for the curve. That is, “y” is halfway between the lower and upper asymptotes when x=c.
“b” is the slope-factor or Hill coefficient. […]

[1] = test compound alone, without co-corrector, read-out: EC50 (without co-corrector)
[2] = with co-corrector, read-out: EC50 (with co-corrector)
[3] = test compound with co-corrector
[4] = test compound with co-corrector, read-out: EC50 (with co-corrector)
[5] = test compound without co-corrector
[6] = test compound without co-corrector, read-out: EC50 (without co-corrector)

EC50 [1] [µM]	Maximum % activity (with co-corrector) (with co-corrector)	EC50 [2] [µM]	Emax (without co-corrector) [%]	Maximum % activity (with co-corrector) [3]	EC50 [4] [µM]	Emax [5] [%]	EC50 [6] [µM]	SMILES
3 to 10	+++ (≥350)	< 3	> 150					COc1cc(OC(C)C)c(C2(C(=O)NS(=O)(=O)c3cccc4nc(C)ccc34)CC2)cn1 [Example GI-18, 1-{6-methoxy-4-[(propan-2-yl)oxy]pyridin-3-yl}-N-(2-methylquinoline-5-sulfonyl)cyclopropane-1-carboxamide]
3 to 10	+++ (≥350)	< 3	> 150					COc1cc(C2(C(=O)NS(=O)(=O)c3cccc4ncccc34)CC2)c(OCC(C)C)cn1 [Example GI-19, 1-[2-methoxy-5-(2-methylpropoxy)pyridin-4-yl]-N-(quinoline-5-sulfonyl)cyclopropane-1-carboxamide]
< 3	+++ (≥350)	< 3	> 150					COc1cc(C2(C(=O)NS(=O)(=O)c3cccc4nc(C)ccc34)CC2)c(OCC(C)C)cn1 [Example GI-20, 1-[2-methoxy-5-(2-methylpropoxy)pyridin-4-yl]-N-(2-methylquinoline-5-sulfonyl)cyclopropane-1-carboxamide]
< 3	+++ (≥350)	< 3	> 150					COc1cc(C2(C(=O)NS(=O)(=O)c3cccc4[nH]ccc34)CC2)c(OCC(C)C)cn1 [Example GI-21, N-(1H-indole-4-sulfonyl)-1-[2-methoxy-5-(2-methylpropoxy)pyridin-4-yl]cyclopropane-1-carboxamide]
< 3	+++ (≥350)	< 3	> 150					CC(C)Oc1ncc(C2CCC2)cc1C1(C(=O)NS(=O)(=O)c2cccc3ncccc23)CC1 [Example GI-22, 1-{5-cyclobutyl-2-[(propan-2-yl)oxy]pyridin-3-yl}-N-(quinoline-5-sulfonyl)cyclopropane-1-carboxamide]
< 3	+++ (≥350)	< 3	> 150					Cc1ccc2c(S(=O)(=O)NC(=O)C3(c4cc(C5CCC5)cnc4OC(C)C)CC3)cccc2n1 [Example GI-23, 1-{5-cyclobutyl-2-[(propan-2-yl)oxy]pyridin-3-yl}-N-(2-methylquinoline-5-sulfonyl)cyclopropane-1-carboxamide]
< 3	+++ (≥350)	< 3	> 150					CC(C)Oc1ncc(C2CCC2)cc1C1(C(=O)NS(=O)(=O)c2cccc3[nH]ccc23)CC1 [Example GI-24, 1-{5-cyclobutyl-2-[(propan-2-yl)oxy]pyridin-3-yl}-N-(1H-indole-4-sulfonyl)cyclopropane-1-carboxamide]
3 to 10	+++ (≥350)	< 3	> 150					CC(C)Oc1cnc(C2CCC2)cc1C1(C(=O)NS(=O)(=O)c2cccc3ncccc23)CC1 [Example GI-25, 1-{2-cyclobutyl-5-[(propan-2-yl)oxy]pyridin-4-yl}-N-(quinoline-5-sulfonyl)cyclopropane-1-carboxamide]
3 to 10	+++ (≥350)	< 3	> 150					Cc1ccc2c(S(=O)(=O)NC(=O)C3(c4cc(C5CCC5)ncc4OC(C)C)CC3)cccc2n1 [Example GI-26, 1-{2-cyclobutyl-5-[(propan-2-yl)oxy]pyridin-4-yl}-N-(2-methylquinoline-5-sulfonyl)cyclopropane-1-carboxamide]
3 to 10	+++ (≥350)	< 3	> 150					CC(C)Oc1cnc(C2CCC2)cc1C1(C(=O)NS(=O)(=O)c2cccc3[nH]ccc23)CC1 [Example GI-27, 1-{2-cyclobutyl-5-[(propan-2-yl)oxy]pyridin-4-yl}-N-(1H-indole-4-sulfonyl)cyclopropane-1-carboxamide]
3 to 10	+++ (≥350)	< 3	> 150					O=C(NS(=O)(=O)c1cccc2ncccc12)C1(c2cc(C3CCC3)cnc2N2CCCC2)CC1 [Example GI-28, 1-[5-cyclobutyl-2-(pyrrolidin-1-yl)pyridin-3-yl]-N-(quinoline-5-sulfonyl)cyclopropane-1-carboxamide]
				+++ (≥350)	< 3	> 150	< 3	Cc1ccc2c(S(=O)(=O)NC(=O)C3(c4cc(C5CCC5)cnc4N4CCCC4)CC3)cccc2n1 [Example GI-29, 1-[5-cyclobutyl-2-(pyrrolidin-1-yl)pyridin-3-yl]-N-(2-methylquinoline-5-sulfonyl)cyclopropane-1-carboxamide]
				+++ (≥350)	< 3	> 150	< 3	O=C(NS(=O)(=O)c1cccc2[nH]ccc12)C1(c2cc(C3CCC3)cnc2N2CCCC2)CC1 [Example GI-30, 1-[5-cyclobutyl-2-(pyrrolidin-1-yl)pyridin-3-yl]-N-(1H-indole-4-sulfonyl)cyclopropane-1-carboxamide]
				+++ (≥350)	< 3	> 150	< 3	O=C(NS(=O)(=O)c1cccc2c1CCCN2)C1(c2cc(C3CCC3)cnc2N2CCCC2)CC1 [Example GI-31, 1-[5-cyclobutyl-2-(pyrrolidin-1-yl)pyridin-3-yl]-N-(1,2,3,4-tetrahydroquinoline-5-sulfonyl)cyclopropane-1-carboxamide]
				+++ (≥350)	< 3	> 150	3 to 10	O=C(NS(=O)(=O)c1cccc2ncccc12)C1(c2cc(C3CC3)cnc2N2CCCC2)CC1 [Example GI-32, 1-[5-cyclopropyl-2-(pyrrolidin-1-yl)pyridin-3-yl]-N-(quinoline-5-sulfonyl)cyclopropane-1-carboxamide]
				+++ (≥350)	< 3	> 150	3 to 10	Cc1ccc2c(S(=O)(=O)NC(=O)C3(c4cc(C5CC5)cnc4N4CCCC4)CC3)cccc2n1 [Example GI-33, 1-[5-cyclopropyl-2-(pyrrolidin-1-yl)pyridin-3-yl]-N-(2-methylquinoline-5-sulfonyl)cyclopropane-1-carboxamide]
				+++ (≥350)	< 3	> 150	3 to 10	O=C(NS(=O)(=O)c1cccc2[nH]ccc12)C1(c2cc(C3CC3)cnc2N2CCCC2)CC1 [Example GI-34, 1-[5-cyclopropyl-2-(pyrrolidin-1-yl)pyridin-3-yl]-N-(1H-indole-4-sulfonyl)cyclopropane-1-carboxamide]
				+++ (≥350)	< 3	> 150	3 to 10	O=C(NS(=O)(=O)c1cccc2ncccc12)C1(c2cc(Cl)cnc2N2CCCC2)CC1 [Example GI-35, 1-[5-chloro-2-(pyrrolidin-1-yl)pyridin-3-yl]-N-(quinoline-5-sulfonyl)cyclopropane-1-carboxamide]
